Test results published in patent US20230293495A1, “PHARMACEUTICAL FORMULATIONS FOR TREATING DISEASES MEDIATED BY KDM1A” (Imago Biosciences, Inc., priority 2020, published 2023).

Key:
KDM1A = KDM1A (Homo sapiens, UniProt O60341); assay: Inhibition of KDM1A; assay type: biochemical
[1] = Excipient compatibility study: binary mixtures of Compound B and excipient in open vials, assay and related substances (RS); assay type: physicochemical; conditions: for RS-1 (related substance): in %; for Total related substances: in % (unit assumed)
Method: Commonly used excipients for oral solid dosage formulations were evaluated for this study including fillers, binders, disintegrants, glidants, lubricants and organic acid stabilizers.
Briefly, each excipient and API were individually weighed and filled in vials, followed by the addition of glass beads. The samples were closed, vortexed, and refrigerated at 2 to 8° C. prior to initiation of study as the sample preparation was executed over a period of 10 days. All vials were removed from the refrigerator and allowed to equilibrate to room temperature, then opened, and stored at the designated storage conditions at the same t=0.

Row | Compound | Inhibition of KDM1A, in words (KDM1A) | % LC (assay) ([1]; 1 week, 50° C./11% RH) | RS-1 (related substance) ([1]; 1 week, 50° C./11% RH) | Total related substances ([1]; 1 week, 50° C./11% RH) | % LC (assay) ([1]; 1 week, 50° C./75% RH) | Related substance RRT 1.081 ([1]; 1 week, 50° C./75% RH) | RS-1 (related substance) ([1]; 1 week, 50° C./75% RH) | Total related substances ([1]; 1 week, 50° C./75% RH) | % LC (assay) ([1]; 2 weeks, 50° C./11% RH) | RS-1 (related substance) ([1]; 2 weeks, 50° C./11% RH) | Total related substances ([1]; 2 weeks, 50° C./11% RH) | % LC (assay) ([1]; 2 weeks, 50° C./75% RH) | Related substance RRT 1.081 ([1]; 2 weeks, 50° C./75% RH) | RS-1 (related substance) ([1]; 2 weeks, 50° C./75% RH) | Total related substances ([1]; 2 weeks, 50° C./75% RH) | % LC (assay) ([1]; week 0) | Related substance RRT 1.081 ([1]; week 0) | RS-1 (related substance) ([1]; week 0) | Total related substances ([1]; week 0)
1 | CN1CCN(C(=O)[C@H](CCCN[C@@H]2C[C@H]2c2ccc(F)cc2)NC(=O)c2ccc(-n3ccnn3)cc2)CC1 [Compound A, N—((S)-5-((1R,2S)-2-(4-fluorophenyl)cyclopropylamino)-1-(4-methylpiperazin-1-yl)-1-oxopentan-2-yl)-4-(1H-1,2,3-triazol-1-yl)benzamide] | has shown activity for the inhibition of KDM1A |  |  |  |  |  |  |  |  |  |  |  |  |  |  |  |  |  | 
2 | CN1CCN(C(=O)[C@H](CCCN[C@@H]2C[C@H]2c2ccc(F)cc2)NC(=O)c2ccc(-n3ccnn3)cc2)CC1.Cc1ccc(S(=O)(=O)O)cc1 [Compound B, N—((S)-5-((1R,2S)-2-(4-fluorophenyl)cyclopropylamino)-1-(4-methylpiperazin-1-yl)-1-oxopentan-2-yl)-4-(1H-1,2,3-triazol-1-yl)benzamide ditosylate] | has shown activity for the inhibition of KDM1A | 98.824 % LC | 0.1652 | 0.2245 | 102.663 % LC | 0.0649% | 0.1453 | 0.2102 | 100.211 % LC | 0.3516 | 0.4595 | 101.800 % LC | 0.0715% | 0.3545 | 0.4260 | 102.973 % LC | 0.0589% | 0.0935 | 0.1525
